We go through three compounds from publication PMC5773572, “High-throughput analysis using non-depletive SPME: challenges and applications to the determination of free and total concentrations in small sample volumes” (Scientific Reports, 2018).

The subject of data set [1] is 5% calf serum in PBS. The experiment in a line: Protein binding by rapid equilibrium dialysis (RED) in 5% calf serum. Format: in vitro ADME. The conditions noted are these: 8K MWCO. The procedure:
Equipments. […] Impact™ protein precipitation plates were purchased from Phenomenex (Torrance, CA, USA). Sample preparation for RED. […] RED protocol. […] Aliquots (400µL) of the spiked treatment medium solutions were added to the donor wells followed by the addition of600µL of blank medium to the acceptor cells. […] The experiment was performed in triplicate for all compounds and concentrations.

Data set [2] is described as follows: Protein binding by ultra-thin coated HLB fiber SPME, slope ratio of calibrations in PBS vs 100% calf serum. The conditions noted are these: bovine (calf), 100% calf serum, pH 7.4.
Protocol: (§1) The SPME experimental workflow consisted of five major steps. First, prior to extraction, fibers were conditioned in 100 µL of desorption solution ACN/H2O (80/20, v/v), which was acidified to contain 0.1% (v/v) formic acid. The second step, occurring prior to extraction, involved submersing the fiber in 100 µL of ultrapure water to remove traces of solvent from the extraction phase. This step was performed for 10 seconds using 100 rpm agitation, with water temperature set to 37 °C in order to avoid a temperature gradient between the fiber and the sample, as this could influence the initial uptake of analytes. Following, extraction was performed on 100 µL of sample for 5 min, with samples thermostated to 37 °C, using 100 rpm agitation, prior to extraction. The fourth step consisted of a second rinsing of the fiber with 100 µL of water for 10 seconds to remove matrix components from the fiber. This step was critical, as it ensured that there were no traces of binding components remaining on the coating that could interfere with the quantitation of analytes extracted by the SPME fiber. […]
(§2) The reliability of the new fiber-based SPME high-throughput method was tested by applying it to the determination of the protein binding (PB) percentages of the selected analytes. […] The protein binding of each compound was calculated using the slope ratios of the linear portions of the calibration curves. […]
Another data set deals with plasma proteins. As to conditions: value reported in the literature, used to calculate the expected free amount; cited from earlier work.
Data set [3] deals with 5% calf serum in PBS. The data set is described as follows: Protein binding by high-throughput SPME fiber method in 5% calf serum in PBS.
Protocol: The SPME experimental workflow consisted of five major steps. First, prior to extraction, fibers were conditioned in 100 µL of desorption solution ACN/H2O (80/20, v/v), which was acidified to contain 0.1% (v/v) formic acid. The second step, occurring prior to extraction, involved submersing the fiber in 100 µL of ultrapure water to remove traces of solvent from the extraction phase. This step was performed for 10 seconds using 100 rpm agitation, with water temperature set to 37 °C in order to avoid a temperature gradient between the fiber and the sample, as this could influence the initial uptake of analytes. […] This step was critical, as it ensured that there were no traces of binding components remaining on the coating that could interfere with the quantitation of analytes extracted by the SPME fiber. […]
as §2
The developed SPME method was further evaluated using a matrix consisted of 5% CS in PBS to mimic conditions typically used in in vitro cell assay applications. […]
The subject of the next data set is calf serum (CS). The experiment in a line: Protein binding by ultra-thin coated HLB fiber SPME, slope ratio of calibrations in PBS vs 100% calf serum. As to conditions: 100% calf serum vs PBS pH 7.4; fiber SPME, 5 min extraction, 37 °C, 100 µL sample.

Protocol for calf serum (CS): as §1, §2

With `O=C(O)Cc1ccccc1Nc1c(Cl)cccc1Cl` [Diclofenac, diclofenac], the “binding values in 5% CS (RED)” value in the data set with 5% calf serum in PBS [1] turned out to be 91%. For the same compound, the fraction unbound at 5 min in data set [2] was 0.02.
On to `CN1CCCC1c1cccnc1` (racemic) [Nicotine, (±) nicotine], for which the “binding values in 5% CS (RED)” value in the data set on 5% calf serum in PBS [1] is less than 10%. Also, in the data set on plasma proteins, the Protein binding is less than 10%. The “PB values in 5% CS (SPME)” value in the data set with 5% calf serum in PBS [3] was determined as 8%.
For the compound `CCN(CC)C(=O)c1cccc(C)c1` [DEET, N,N-Diethyl-meta-toluamide], the “binding values in 5% CS (RED)” value in the data set with 5% calf serum in PBS [1] was less than 10%. Moreover, in the data set with 5% calf serum in PBS [3], the “PB values in 5% CS (SPME)” value was 38%. Moreover, in the data set on calf serum (CS), the “protein binding (PB)” value was found to be 71%.
